Source: US20080031866A1, “METHOD FOR MODULATING THE PHARMACOKINETICS AND METABOLISM OF A THERAPEUTIC AGENT” (priority 2006, published 2008)

How the values were obtained:
[1] = Oral gavage pharmacokinetics, jugular and portal vein sampling, first pass metabolism; assay type: in vivo, rat; conditions: for AUC: po, 75 mg/kg; for AUC / concentration at 0 h / concentration at 0.08 h / concentration at 0.25 h / concentration at 0.33 h / concentration at 0.5 h / concentration at 0.67 h / concentration at 1 h / concentration at 1.25 h / concentration at 1.5 h / concentration at 2 h / concentration at 3 h / concentration at 4 h / concentration at 6 h / concentration at 12 h / concentration at 24 h / Cmax: rats N=4; for Cmax: read-out: Cmax average ± standard deviation
Protocol: Two separate IV studies were carried out using two separate lots of animals. IV-A was run on the same lot of animals as the oral gavage study and IV-B was run on the same lot of animals as the intraduodenal and intra-colonic studies.
(§1) For the oral gavage dosing, Compound 1 was prepared in neat PEG-400. For the intraduodenal and intracolonic dosing solutions, Compound 1 was added to neat Tween 80, the mixture was sonicated for thirty minutes at 45° C. until Compound 1 was completely dissolved and then deionized (DI) water was added to form a solution consisting of 20% Tween 80 and 80% DI water by weight.
For the IV and oral gavage dosing (sampling at jugular and portal vein), young adult male Sprague Dawley rats weighing 250-400 g were purchased from Hilltop Lab Animals Inc. All rat experiments were conducted under approved animal protocols. The rats for the oral gavage dosing were catheterized at Hilltop Lab Animals Inc, had two chronic catheters for sampling: jugular and portal, were housed in cages of Culex™ Automated Blood Sampler (ABS) and blood samples were collected simultaneously via both cannula and were controlled by the Culex™ ABS control software.
(§2) A quantitative method for determining the amount of (6,7-dimethoxy-2,4-dihydro-indeno[1,2-c]pyrazol-3-yl)-(3-fluoro-phenyl)-amine Compound 1 and its major metabolites, glucuronide A (Cpd 1-GluA) and glucuronide B (Cpd 1-GluB) (see Scheme A) in rat plasma was developed using phenacetin as an internal standard. [drawing 1]
(§3) The two glucuronide conjugates were prepared and purified to permit accurate quantification of the levels of intact parent Compound 1 versus Cpd 1-GluA and Cpd 1-GluB. Each standard curve for Compound 1, Cpd 1-GluA, and Cpd 1-GluB generated from rat plasma included ten concentration levels. […] The quantitative procedure for each sample included: sample preparation, HPLC separation and mass spectrometry detection.
(§4) The rat plasma was prepared using protein precipitation techniques. Reference standards and quality control samples in rat plasma for Compound 1 were transferred to a 96 deep-well plate. The precipitation solution contained 100 ng/ml of internal standard in acetonitrile. 300 μl of precipitation solution were added to 100 μl of each standard, quality control and plasma sample. Samples were vortexed for 10 mins, then centrifuged at 4500 RPM for 10 mins. 10 μl of each sample were injected for LC/MS/MS analysis.
(§5) The HPLC column chosen for the bioanalysis was purchased from Thermo Electron (Hypersil BetaBasic C18, 5 cm×2.1 mm). The eluting solvents were composed of Solvent A: 0.1% formic acid in H2O and Solvent B: 0.1% formic acid in acetonitrile. A step gradient was used and flow rate was 300 μl/min. The total run time was 3.2 mins. Solvent B was increased from 35% at 0 min to 75% at 2.1 mins and decreased back to 35% at 2.2 mins. The retention times for Compound 1, phenacetin, Cpd 1-GluA and Cpd 1-GluB were 1.1 min, 0.9 min, 1.3 min, and 1.6 min, respectively.
API3000 with a Turbo Ionspray interface from Applied Biosystems was used for the detection of Compound 1, the internal standard and major metabolites. Electrospray ionization was performed in the positive ion mode heated nebulizer with a temperature of 300° C. LC/MS/MS chromatograms were acquired in MRM (multiple reaction mode). The MRM transitions for Compound 1, the internal standard, Cpd 1-GluA and Cpd 1-GluB were from 326.3 to 190.6, 181.1 to 110.3, 502.2 to 368.3 and 502.2 to 326.4, respectively. […]

[2] = Intraduodenal dosing with and without β-glucuronidase, catheterized rat; assay type: in vivo; conditions: 10 mg/kg, rats N=6; for AUC / Cmax / concentration at 0 h / concentration at 0.25 h / concentration at 0.5 h / concentration at 1 h / concentration at 2 h / concentration at 3 h / concentration at 4 h / concentration at 5 h / concentration at 6 h: male, Sprague Dawley, rat, plasma; for AUC: read-out: AUC average ± standard deviation 0 to 6 hours; for Cmax: read-out: Cmax average ± standard deviation; for concentration at 0 h / concentration at 0.25 h / concentration at 0.5 h / concentration at 1 h / concentration at 2 h / concentration at 3 h / concentration at 4 h / concentration at 5 h / concentration at 6 h: other: intraduodenal
Protocol: A catheterized rat model was used in which the agent alone or agent and β-glucuronidase enzyme was administered intraduodenally or intracolonically. The intraduodenal and intracolonic dosing was intended to prevent the potential for loss of enzymatic activity when orally dosing the β-glucuronidase (e.g. by degradation in the stomach). […]
as §1
For the oral enzyme solutions, β-glucuronidase was added to the final formulation at a concentration of 57,600 units/ml.
For the intraduodenal and intracolonic dosing, male Sprague Dawley rats weighing 300-400 g were purchased from Charles River Labs. All rat experiments were conducted under approved animal protocols. The rats were catheterized at Charles River Labs and had one or more of the following chronic catheters for dosing and sampling: jugular/carotid, duodenal, and colonic. Rats were limited to only one GI catheter and one vascular catheter. For IV dosing, rats were purchased with jugular and carotid catheters for dosing in the jugular catheter and blood sampling through the carotid catheter. For intraduodenal/intracolonic dosing, rats had one of the GI catheters for dosing and a carotid catheter for blood sampling.
The surgeries were done two weeks prior to start of testing. Rats were fed 4 hours post dose administration. All rats were dosed without anesthesia and sacrificed at the end of the study.
as §2, §3, §4, §5
API3000 with a Turbo Ionspray interface from Applied Biosystems was used for the detection of Compound 1, the internal standard and major metabolites. Electrospray ionization was performed in the positive ion mode heated nebulizer with a temperature of 300° C. LC/MS/MS chromatograms were acquired in MRM (multiple reaction mode). […]

[3] = male, Sprague Dawley, rat, plasma (jugular vein sample), Compound 1 75 mg/kg oral gavage, jugular sample
[4] = male, Sprague Dawley, rat, plasma (portal vein sample), Compound 1 75 mg/kg oral gavage, portal sample
[5] = male, Sprague Dawley, rat, portal vein plasma, Compound 1 75 mg/kg oral gavage, portal sample
[6] = Compound 1 10 mg/kg intraduodenal with β-glucuronidase
[7] = Compound 1 10 mg/kg intraduodenal without enzyme

**Q.** What does the source list for COc1cc2c(cc1OC)-c1n[nH]c(N(c3cccc(F)c3)[C@H]3O[C@@H](C(=O)O)[C@H](O)[C@@H](O)[C@@H]3O)c1C2 [Cpd 1-GluA]?
**A.** Ratio of metabolite to Compound 1 ([1]; jugular vein, oral gavage): 78; AUC ([1]; male, Sprague Dawley, rat, plasma (jugular vein sample), Compound 1 75 mg/kg oral gavage, jugular sample, read-out: AUC average ± standard deviation 0 to 24 hours): 117 µg·h/mL; AUC ([1]; male, Sprague Dawley, rat, plasma (jugular vein sample), Compound 1 75 mg/kg oral gavage, jugular sample, read-out: AUC average ± standard deviation 0 to infinite hours): 169 µg·h/mL; concentration at 0 h [1, 3]: 2.2 ng/mL; concentration at 0.08 h [1, 3]: 2570 ng/mL; concentration at 0.25 h [1, 3]: 12400 ng/mL; concentration at 0.33 h [1, 3]: 16100 ng/mL; concentration at 0.5 h [1, 3]: 15700 ng/mL; concentration at 0.67 h [1, 3]: 14700 ng/mL; concentration at 1 h [1, 3]: 14300 ng/mL; concentration at 1.25 h [1, 3]: 11700 ng/mL; concentration at 1.5 h [1, 3]: 11700 ng/mL; concentration at 2 h [1, 3]: 11100 ng/mL; concentration at 3 h [1, 3]: 6480 ng/mL; concentration at 4 h [1, 3]: 3750 ng/mL; concentration at 6 h [1, 3]: 4290 ng/mL; concentration at 12 h [1, 3]: 5170 ng/mL; concentration at 24 h [1, 3]: 2470 ng/mL; Cmax [1, 3]: 17600 ng/mL; concentration at 0.67 h [1, 4]: 26000 ng/mL; concentration at 1 h [1, 4]: 11700 ng/mL; concentration at 1.25 h [1, 4]: 15100 ng/mL; concentration at 1.5 h [1, 4]: 12200 ng/mL; concentration at 2 h [1, 4]: 14700 ng/mL; concentration at 3 h [1, 4]: 10700 ng/mL; concentration at 4 h [1, 4]: 7500 ng/mL; concentration at 6 h [1, 4]: 11600 ng/mL; concentration at 12 h [1, 4]: 8000 ng/mL; Tmax ([1]; male, Sprague Dawley, rat, plasma, rats, Compound 1 75 mg/kg oral gavage): 54 min; AUC ([1]; male, Sprague Dawley, rat, portal vein plasma, Compound 1 75 mg/kg oral gavage, portal sample, read-out: AUC average ± standard deviation 0 to 24 hours): 190 µg·h/mL; AUC ([1]; male, Sprague Dawley, rat, portal vein plasma, Compound 1 75 mg/kg oral gavage, portal sample, read-out: AUC average ± standard deviation 0 to infinite hours): 271 µg·h/mL; concentration at 0 h [1, 5]: 1.3 ng/mL; concentration at 0.08 h [1, 5]: 9460 ng/mL; concentration at 0.25 h [1, 5]: 18900 ng/mL; concentration at 0.33 h [1, 5]: 22400 ng/mL; concentration at 0.5 h [1, 5]: 17400 ng/mL; concentration at 24 h [1, 5]: 5070 ng/mL; Cmax [1, 5]: 29200 ng/mL; Systemic exposure of Glu A relative to Glu B ([1]; oral gavage dosing): ~66 times; Mean ratio of metabolite to Compound 1 ([1]; portal system, oral gavage): 20; AUC [2, 6]: 8.94 ± 2.14 µg·h/mL; Cmax [2, 6]: 6450 ng/mL; AUC [2, 7]: 1.22 ± 0.371 µg·h/mL; Cmax [2, 7]: 717 ± 171 ng/mL; concentration at 0 h [2, 6]: 0 ng/mL; concentration at 0.25 h [2, 6]: 6450 ng/mL; concentration at 0.5 h [2, 6]: 4820 ng/mL; concentration at 1 h [2, 6]: 3860 ng/mL; concentration at 2 h [2, 6]: 812 ± 426 ng/mL; concentration at 3 h [2, 6]: 462 ± 208 ng/mL; concentration at 4 h [2, 6]: 480 ± 107 ng/mL; concentration at 5 h [2, 6]: 420 ± 74.1 ng/mL; concentration at 6 h [2, 6]: 462 ± 113 ng/mL; concentration at 0 h [2, 7]: 0 ng/mL; concentration at 0.25 h [2, 7]: 666 ± 198 ng/mL; concentration at 0.5 h [2, 7]: 687 ± 178 ng/mL; concentration at 1 h [2, 7]: 463 ± 164 ng/mL; concentration at 2 h [2, 7]: 118 ± 36.3 ng/mL; concentration at 3 h [2, 7]: 66.6 ± 42 ng/mL; concentration at 4 h [2, 7]: 88.2 ± 53.9 ng/mL; concentration at 5 h [2, 7]: 83.1 ± 23.2 ng/mL; concentration at 6 h [2, 7]: 90.2 ± 28.1 ng/mL; AUC average ± standard deviation 0 to 6 hours [2, 6]: 8,723.2 ± 2,132.6 ng · hr/ml; AUC average ± standard deviation 0 to 6 hours [2, 7]: 1,172.7 ± 361.2 ng · hr/ml
